Read-outs that look alike come from different tables or passages of the source. Marks after values point to notes of the source that are not given here. Each block holds one molecule with its values, some of them ahead of it.
How the values were obtained:
[1] = Serum FAEE and blood ethanol over time in men and women after alcohol consumption over 90 minutes (Example 1); assay type: in vivo, human
Protocol: Seven volunteers (four men and […]) were given measured amounts of 100-proof vodka mixed with fruit juice in a 1:3 ratio which was weight-adjusted to increase blood ethanol levels to approximately 120-147 mg/dL. The beverage was divided in 9 equal aliquots which the subjects drank over a 90 minute period, 1 aliquot every 10 minutes. This alcohol intake represented consumption to the legal limit of intoxication. Once the drinking commenced, blood was collected from a catheter every 15 min for the first 2.5 h. Between 2.5 and 4.0 h, samples were collected every 30 min; and from 4 to 8 h, they were collected every 60 min. A final blood sample was also collected 24 h after the ethanol ingestion commenced. Blood was collected from a peripheral venous catheter into vacuum tubes without anti-coagulant (for serum FAEE) and into tubes with the anti-coagulant sodium citrate (for plasma ethanol). (Soderberg, et al., Clinical Chemistry, 45(12):2183-2190, 1999; Doyle, K. M. et al., JAMA, 276:1152-1156, 1996)
All samples were extracted with acetone/hexane (2/8, v/v) and dried under nitrogen vapors to a volume of approximately 300 μL. […] FAEEs were then quantitated by gas chromatography-mass spectrometry (GC-MS) using a Hewlett-Packard 5890 Series II gas chromatograph equipped with a Supelcowax SP-2330 capillary column coupled to an HP-5971 mass spectrometer.

[2] = Post-mortem liver and adipose FAEE as markers of pre-mortem ethanol intake (Example 9); assay type: in vivo; conditions: autopsy tissue
Source text: This study was approved by both the Massachusetts Medical Examiner Office Committee and the Massachusetts General Hospital Pathology Quality Assurance Committee. Twenty-four sets of samples were collected at the Massachusetts State Medical Examiner's Office and 7 sets of samples were obtained from the Pathology Department of Massachusetts General Hospital. Medical history, history of ethanol ingestion (obtained from the organ bank, treating physician, health insurance records, and/or relatives), and the blood ethanol level at autopsy were obtained in each case. Only cases with available blood ethanol levels were included in this study. Individuals who had detectable blood ethanol levels at the time of autopsy, with or without a history of ethanol abuse, were grouped as “positive for ethanol.” Individuals categorized in the chronic alcoholic or social drinker groups met all of the following criteria a) no known alcohol intake immediately prior to death; b) undetectable blood ethanol level in blood samples collected at autopsy; and c) no suspicious incident at the time of death. In addition, chronic alcoholics were diagnosed according to the Diagnostic and Statistical Manual-IV.
Samples of liver and adipose tissue were collected at autopsy from randomly selected cases and FAEE were isolated and quantitated from these organs as mass per gram wet weight. […]

[3] = Distribution of plasma FAEE species in chronic alcoholics vs. acutely intoxicated individuals (Example 6); assay type: in vivo, human; conditions: for proportion of total FAEE, acute drinkers relative to chronic drinkers: plasma
Source text: Plasma was obtained from chronic alcoholics (i.e. chronic drinkers) at the time of admission to a detoxification program. Acutely intoxicated control subjects used for comparison in this study were normal, healthy volunteers who also participated in the study concerning gender and alcoholic beverage type (see above).

[4] = Plasma FAEE levels in acute (binge) and chronic drinkers at peak ethanol levels and 24 hours after peak (Example 7); assay type: in vivo, human; conditions: for average proportion of total FAEE which is ethyl oleate: peak or near peak ethanol levels; for concentration at 24 h: human, plasma, oral; for Proportion of Ethyl Oleate in Binge Drinkers (Mean +/− SEM) / Proportion of Ethyl Oleate in Binge Drinkers (range) / Proportion of Ethyl Oleate in Chronic Drinkers (Mean +/− SEM) / Proportion of Ethyl Oleate in Chronic Drinkers (range): of total FAEE in plasma; for mean difference between proportion of total FAEE which is ethyl stearate and proportion which is ethyl oleate: 24 hours after alcohol consumption
Protocol: Thus, as an example, gas chromatography either alone or in combination with mass spectrometry and/or an initial step of solid phase extraction can be used to determine total and/or individual fatty acid ethyl ester concentrations. […] If the sample has been previously harvested and frozen, it is thawed out and a 1 mL aliquot is removed for analysis. […] In order to determine and quantitate FAEE content, an internal standard of 1 nmol of ethyl heptadecanoate (ethyl 17:0) is added to each sample. Samples are extracted with acetone hexane (2:8, by volume) and dried under nitrogen vapors to a volume of approximately 300 μL. FAEEs are isolated by solid phase extraction using Bond Elut-LRC aminopropyl columns. Columns are pre-washed with dichloromethane followed by hexane; the sample is then applied to the column and eluted by successive washes of hexane and dichloromethane. Combined eluates are concentrated, and FAEEs are then quantified by GC-MS using a Hewlett Packard 5890 Series II gas chromatograph equipped with a Supelcowax SP-2330 capillary column coupled to an HP-5971 mass spectrometer. The injector and detector are maintained at 260° C. and 280° C., respectively. The oven program is initially maintained at 130° C. for 2 minutes then ramped to 160° C. at 5° C./min, ramped again at 2° C./min to 180° C., held for 7 min, finally, ramped to 230° C. at 15° C/min and maintained for 2 min. Carrier gas flow rate is maintained at a constant 0.8 mL/min throughout. Single-ion monitoring is performed, quantifying appropriate base ions for individual FAEE species [i.e., ions m/z 67, 88, and 101 for ethyl palmitate (E16:0), ethyl heptadecanoate (E17:0), ethyl stearate (E18:0), ethyl oleate (E18:1), and ethyl linoleate (E18.2); and ions m/z 79 and 91 for ethyl arachidonate (E20:4), ethyl eicosapentaenoate (E20:5), and ethyl docosahexaenoate (E22:6)]. FAEEs are quantitated by interpolation of the slope generated from individually prepared calibration curves comparing areas of varying concentrations of E16:0-E22:6 to fixed concentrations of the internal standard (E17:0). Mass relationships are obtained for each FAEE using its individual calibration curve. Total FAEE mass is determined by the addition of masses of individual FAEEs (E16:0-E22:6).
A subset of human subjects presenting at the Massachusetts General Hospital with apparent alcohol related symptoms were entered into this study. Blood was collected from such subjects immediately at the time of presentation, which was assumed to be at peak or near peak ethanol levels, and again 24 hours after presentation. A medical history taken from each subject was used to categorize the subject as a chronic alcoholic or an acute (i.e., binge) drinker. Blood samples were processed, as described herein, to determine the absolute levels of ethyl palmitate, ethyl oleate and total FAEE in plasma.

[5] = binge drinkers, 24 hours after peak ethanol levels
[6] = a day after peak or near peak alcohol levels

time at which blood ethanol decreased to initial levels ([1]; after the beginning of alcohol intake): about 500 minutes | maximum level of blood ethanol ([1]; both men and women): approximately 130 mg/dL
SMILES: CCO [ethanol]

SMILES: CCCCC/C=C\C/C=C\C/C=C\C/C=C\CCCC(=O)OCC [ethyl arachidonate]
level in liver and adipose, individuals with detectable blood ethanol at autopsy compared with chronic alcoholics and social drinkers [2]: markedly higher

Concentration of Ethyl Oleate in Binge Drinkers (Mean +/− SEM) ([4]; 24 hours after peak): (14 ± 8) pmol/mL | Concentration of Ethyl Oleate in Chronic Drinkers (Mean +/− SEM) ([4]; 24 hours after peak): (2714 ± 1821) pmol/mL | proportion of total FAEE which is ethyl oleate [4, 5]: 10% | average proportion of total FAEE which is ethyl oleate ([4]; binge drinkers): 32% | proportion of total FAEE which is ethyl oleate ([4]; chronic drinkers, 24 hours after peak ethanol levels): 71% | average proportion of total FAEE which is ethyl oleate ([4]; chronic drinkers): 28% | concentration at 24 h ([4]; 24 hours after peak ethanol levels, read-out: concentration of ethyl oleate in the majority of binge drinkers (9 out of 13)): < 1 nM | concentration at 24 h ([4]; 24 hours after peak, read-out: Concentration of Ethyl Oleate in Binge Drinkers (range)): 0 to 80 nM | concentration at 24 h ([4]; 24 hours after peak, read-out: Concentration of Ethyl Oleate in Chronic Drinkers (range)): 120 to 28100 nM | Proportion of Ethyl Oleate in Binge Drinkers (Mean +/− SEM) ([4]; 24 hours after peak): (0.09 +/− 0.04) | Proportion of Ethyl Oleate in Binge Drinkers (range) ([4]; 24 hours after peak): 0.01-0.46 | Proportion of Ethyl Oleate in Chronic Drinkers (Mean +/− SEM) ([4]; 24 hours after peak): (0.71 +/− 0.02) | Proportion of Ethyl Oleate in Chronic Drinkers (range) ([4]; 24 hours after peak): 0.58-0.82 | Proportion of Ethyl Oleate in Binge Drinkers (Mean +/− SEM) ([4]; peak or near peak ethanol): (0.28 +/− 0.02) | Proportion of Ethyl Oleate in Binge Drinkers (range) ([4]; peak or near peak ethanol): 0.01-0.44 | Proportion of Ethyl Oleate in Chronic Drinkers (Mean +/− SEM) ([4]; peak or near peak ethanol): (0.32 +/− 0.02) | Proportion of Ethyl Oleate in Chronic Drinkers (range) ([4]; peak or near peak ethanol): 0.16-0.46 | Concentration of Ethyl Oleate in Binge Drinkers (Mean +/− SEM) ([4]; peak or near peak ethanol): (557 ± 82) pmol/mL | Concentration of Ethyl Oleate in Binge Drinkers (range) ([4]; peak or near peak ethanol): 184 to 1049 nM | Concentration of Ethyl Oleate in Chronic Drinkers (Mean +/− SEM) ([4]; peak or near peak ethanol): (2817 +/− 780) pmol/mL | Concentration of Ethyl Oleate in Chronic Drinkers (range) ([4]; peak or near peak ethanol): 96 to 16011 nM
SMILES: CCCCCCCC/C=C\CCCCCCCC(=O)OCC [ethyl oleate]
percent of total FAEE in plasma ([3]; acute drinkers): about 30% | percent of total FAEE in plasma ([3]; chronic drinkers, at admission to detoxification program): ~75%

Ethyl Palmitate to Ethyl Oleate Ratio in Chronic Drinkers (Mean +/− SEM) ([4]; 24 hours after peak): (0.41 +/− 0.03) | Ethyl Palmitate to Ethyl Oleate Ratio in Chronic Drinkers (range) ([4]; 24 hours after peak): 0.22-0.73 | Ethyl Palmitate to Ethyl Oleate Ratio in Binge Drinkers (Mean +/− SEM) ([4]; 24 hours after peak, mean calculated using a value of 100 where the ratio was ∞): (69.8 +/− 13.1)* | P/O ratio of all chronic drinkers [4, 6]: less than 1.0 | P/O ratio of most binge drinkers [4, 6]: ∞ | mean proportion of total FAEE which is ethyl palmitate [4, 5]: 80% | mean proportion of total FAEE which is ethyl palmitate ([4]; binge drinkers, peak or near peak alcohol levels): 49% | mean proportion of total FAEE which is ethyl palmitate ([4]; chronic alcoholics, 24 hours after peak ethanol levels): 29% | mean proportion of total FAEE which is ethyl palmitate ([4]; chronic alcoholics, peak or near peak alcohol levels): 38% | Ethyl Palmitate to Ethyl Oleate Ratio in Binge Drinkers (Mean +/− SEM) ([4]; peak or near peak): (6.28 +/− 5.0) | Ethyl Palmitate to Ethyl Oleate Ratio in Binge Drinkers (range) ([4]; peak or near peak): 0.96-70.65 | Ethyl Palmitate to Ethyl Oleate Ratio in Chronic Drinkers (Mean +/− SEM) ([4]; peak or near peak): (1.27 +/− 0.12) | Ethyl Palmitate to Ethyl Oleate Ratio in Chronic Drinkers (range) ([4]; peak or near peak): 0.53-3.49
SMILES: CCCCCCCCCCCCCCCC(=O)OCC [ethyl palmitate]
proportion of total FAEE, acute drinkers relative to chronic drinkers [3]: almost three times higher

mean difference between proportion of total FAEE which is ethyl stearate and proportion which is ethyl oleate ([4]; binge drinkers): about 10% | mean difference between proportion of total FAEE which is ethyl stearate and proportion which is ethyl oleate ([4]; chronic alcoholics): roughly 70%
SMILES: CCCCCCCCCCCCCCCCCC(=O)OCC [ethyl stearate]
proportion of total FAEE, acute drinkers relative to chronic drinkers [3]: ~15 fold
